# Assays:
# IRG1 = IRG1 enhancer ChIP-qPCR and mRNA expression in human donor heart tissue
# Method: (§1) Pig hearts underwent ex-vivo perfusion after preservation for 4 or 10 hours. Approval for human heart procurement was obtained from the University of Michigan Institutional Review Board (HUM00131275). Human donor hearts from deceased brain death donors were procured as per standard clinical protocols from the Gift of Life Michigan (GOLM) organ procurement facility. Myocardial biopsies (˜5 mm^3) of LV were biopsied immediately after cardioplegic arrest (0 h) and after 8 hours (8 h) of cold storage in a cooler containing ice. […] Causes of death were stroke (n=4), trauma (n=2), drug overdose (n=1), and cardiac arrest (n=1). Heart tissue were either fixed in formalin or snap frozen in liquid N2 for later analysis.
# murine donor hearts [1] = test: Murine ex-vivo heart perfusion after cold preservation; set-up: species or system mouse
# Method: (§2) Male and female WT or Irg1^−/− mice (Jackson laboratories, Bar Harbor, ME) were anesthetized intraperitoneally with 80 mg/kg ketamine and 5 mg/kg xylazine, anticoagulated with heparin (2,000 U/kg iv), and the heart was rapidly exposed through a sternal incision. The aorta was cannulated and retrograde perfused in-situ with HTK solution±HDAC inhibitors. After cannulation, the heart dissected free, the left atrium was opened. For 4-OI (Cayman Chemical, 25374) experiments, donor mice were treated 4-OI (dissolved in 40% β-Cyclodextrin, 50 mg/kg intraperitoneally) or vehicle control (40% β-Cyclodextrin intraperitoneally) 2 hours prior to donor heart procurement. After dissection, the heart was stored at 4° C. with HTK or HTK with VPA for a pre-designated duration. The hearts were then mounted on a Radnoti mouse Langendorff apparatus (ADInstruments inc., Colorado Springs, CO) in constant-pressure mode (˜70 mmHg) with a modified Krebs-Henseleit buffer (KHB; in mM: 118 NaCl, 4.7 KCl, 1.25 CaCl2), 1.66 MgSO4, 24.88 NaHCO3, 1.18 KH2PO4, 5.55 glucose, and 2.0 Na-pyruvate). A balloon was placed in the LV through the left atrium and left ventricular diastolic pressure was set to ˜8 mmHg at initiation. The heart was perfused with modified Krebs-Henseleit buffer for 30 min to stabilize and then hemodynamics measurements were recorded. Myocardial temperature was maintained at 37° C. LabChart software (ADInstruments inc., Colorado Springs, CO) was used to record ventricular function, perfusion pressures, cardiac chamber temperature and myocardial temperature. After perfusing the heart for 60 minutes, the heart was removed from the ex-vivo perfusion apparatus for specimen collection. Tissue was immediately placed in liquid N2 or treated with 4% formalin.
# murine donor hearts [2] = test: Murine donor heart tissue staining and Western blot (oxidative stress, antioxidant proteins, cell death); set-up: species or system mouse
# Method: as §2
# pig hearts = test: Porcine ex-vivo heart perfusion after cold preservation
# Method: Heart procurement for both human and pigs were performed as follows. A sternotomy is performed under general anesthesia. The pericardium is then opened to create a pericardial cradle for the heart. Heparin (300U/kg) administered through the right atrium or in a peripheral vein. After waiting 3 minute for adequate anticoagulation from heparin, a 9 Fr antegrade plegia infusion catheter is placed in the ascending aorta. Approximately 1 liter of autologous donor arterial blood is then collected into a collection bottle containing heparin. […] Subsequently, the ascending aorta is cross-clamped distal to the cardioplegia catheter and 1 liter of cold (4° C.) HTK solution is infused into the coronaries at a perfusion pressure of ˜80 mmHg to induce mechanical arrest. After excising the heart completely, it is transported to the back-table for infusion of 2 liters of HTK±VPA solution. After completion, the heart is stored in a solution identical to the perfusate at 4° C. on ice.
# as §1
# For ex-vivo pig heart perfusion (FIG. 15), the ascending aorta is connected to the arterial perfusion cannula and the left atrium is closed by suturing shut the pulmonary veins. A pressure monitoring catheter and left atrial infusion catheter were then placed into the left atrial cavity and secured. The Miller conductance catheter was introduced into the left ventricular cavity for measurement of ventricular performance parameters. The Radnoti constant perfusion pressure apparatus (ADInstruments Inc., Colorado Springs, CO) was utilized for ex-vivo large animal heart perfusion. Approximately 1 liter of previously collected autologous blood was added to ˜3.5 liters of Krebs buffer and this was initially infused at 24° C. with gradual warming to 37° C. After air was removed from the perfusion system, the ascending aorta and coronaries were retrograde perfused through the arterial cannula at physiological pressure ˜80 mmHg, leading to cardiac reanimation. The perfusion pressure was kept constant at ˜80 mmHg so LV contraction would need to overcome this afterload for cardiac output. Shockable arrhythmias such as ventricular tachycardia, ventricular fibrillation, supraventricular tachycardia were electrically cardioverted to sinus rhythm by delivery of 10 or 20 joules of energy. Cardiac performance was assessed in “resting” and “working” modes (60, 61). The left atrial pressure in resting mode was typically 0-1 mmHg. To assess cardiac hemodynamics in “working mode”, perfusate was infused into the left atrium at 4-10 mmHg at the 4-hour time point for LV loading and cardiac output assessment. Because cardiac performance was highly impaired as expected at the 10-hour time point, the left atrium was loaded to a pressure of up to 15 mmHg to assess cardiac output. At 1 hour intervals, both arterial perfusate and coronary sinus blood were collected for monitoring and analysis. Oxygen pressure was kept at about pO2 150-200 mmHg while pCO2 was kept at about 35-40 mmHg. Arterial pH was maintained at 7.35-7.40 by buffering with 5% CO2 during gas exchange. The heart was perfused ex vivo for 3 hours and then arrested with 4° C. HTK solution for specimen collection in formalin or snap frozen with liquid N2. The heart was weighed at the time of procurement and at the end of perfusion. […]
# [3] = 16 hours preservation, ex-vivo perfusion
# [4] = ex vivo perfused WT murine hearts
# [5] = ex vivo perfused hearts compared to HTK alone
structure (smiles),measurement,setting,value
"CCCC(CCC)C(=O)O [VPA, 2-Propyl-pentanoic acid]",IRG1 enhancer activity (H3K27ac ChIP-qPCR),IRG1; 8-hours of preservation compared to HTK alone,increased
same,IRG1 mRNA transcript expression,IRG1; human hearts after preservation,increased
same,ex vivo contractility,"murine donor hearts [1]; HTK±VPA, cold preservation up to 16 hours",improve
same,cardioprotective effects of VPA with deficiency in Irg1,"murine donor hearts [1]; Irg1−/− hearts, ex vivo perfusion and syngeneic transplant models",reduced
same,effect of conditional Irg1 deficiency in myeloid cells on VPA's cardioprotective effects on contractility or relaxation,"murine donor hearts [1]; LysM-Cre hearts, ex vivo perfusion model",did not impact
same,VPA concentration with peak cardioprotective effect,"murine donor hearts [1]; titration 5, 10 and 20 mM in HTK, 16 hours preservation",10 mM
same,overall oxidative stress (DHE staining),murine donor hearts [2]; [3],decreased
same,oxidative DNA damage (8OHdG staining),murine donor hearts [2]; [3],decreased
same,NRF2 nuclear translation effect,murine donor hearts [2]; Irg1−/− hearts,greatly reduced
same,benefit on TUNEL staining in α-actinin+ cardiomyocytes,murine donor hearts [2]; Irg1−/− hearts,lost
same,antioxidant protein expression,murine donor hearts [2]; Irg1−/− murine hearts,no increase
same,NRF2 nuclear translation from the cytoplasm,murine donor hearts [2]; WT hearts,induced
same,protein abundance of HO1,murine donor hearts [2]; [4],upregulated
same,protein abundance of SOD1,murine donor hearts [2]; [4],upregulated
same,protein abundance of SOD2,murine donor hearts [2]; [4],not
same,protein abundance of total NRF2,murine donor hearts [2]; [4],upregulated
same,ratio of reduced (GSH) versus oxidized glutathione (GSSG),murine donor hearts [2]; preserved and transplanted murine hearts,increased
same,TUNEL staining in α-actinin+ cardiomyocytes,murine donor hearts [2]; wild type hearts,reduced
same,TnI in arterial perfusate,pig hearts,reduced
same,cleaved caspase 3 expression,pig hearts,decreased
same,heart weight,pig hearts,no difference
same,oxygen consumption,pig hearts,higher
same,total Nrf2 protein in cardiac tissue,pig hearts,increased
same,NRF2 nuclear translocation,pig hearts; 4 and 10 hours of preservation,induced
same,donor heart contractility in working mode,pig hearts; 4 h and 10 h preservation,improved
same,donor heart relaxation in working mode,pig hearts; 4 h and 10 h preservation,improved
same,oxidative DNA damage via 8-OHdG staining,pig hearts; 10 h preservation,greatly reduced
same,improvement of cardiac output (CO) compared with HTK alone,pig hearts; after 4 h preservation,about 25%
same,aortic pulse pressure magnitude (systolic minus diastolic pressure),pig hearts; after 10 h of preservation,greater
same,improvement of cardiac output (CO) compared with HTK alone,pig hearts; after 10 h of preservation,100%
same,systolic pressure in the left ventricular cavity,pig hearts; after 10 h of preservation,higher
same,perfusate concentration of IL-1β,pig hearts; after 10 hours of preservation,reduced
same,perfusate concentration of IL-2,pig hearts; after 10 hours of preservation,reduced
same,perfusate concentration of IL-6,pig hearts; after 10 hours of preservation,reduced
same,perfusate concentration of TNF-α,pig hearts; after 10 hours of preservation,reduced
same,expression of pro-survival protein BCL2,pig hearts; after 10 h preservation,increased
same,expression of IRG1 transcript,pig hearts; [5],increased
same,mRNA abundance of IL1B,pig hearts; [5],decreased
same,mRNA abundance of IL6,pig hearts; [5],decreased
same,mRNA abundance of TNFA,pig hearts; [5],decreased
same,oxygen consumption compared to HTK alone,pig hearts; pig hearts preserved for 10 h,greater
